In patent US20250243208A1, “BICYCLIC HETEROCYCLES AS MRGPRX2 ANTAGONISTS” (Incyte Corporation, priority 2024, published 2025):

target: T1, MRGPRX2 (Homo sapiens, UniProt Q96LB1); experiment: MRGPRX2 β-Arrestin recruitment assay (PathHunter CHO-K1); assay type: cell-based; parameters: host or cells: PathHunter CHO-K1; conditions: PathHunter CHO-K1 cells, agonist Cortistatin 14 0.25 μM
T1 sequence (Q96LB1 1-330): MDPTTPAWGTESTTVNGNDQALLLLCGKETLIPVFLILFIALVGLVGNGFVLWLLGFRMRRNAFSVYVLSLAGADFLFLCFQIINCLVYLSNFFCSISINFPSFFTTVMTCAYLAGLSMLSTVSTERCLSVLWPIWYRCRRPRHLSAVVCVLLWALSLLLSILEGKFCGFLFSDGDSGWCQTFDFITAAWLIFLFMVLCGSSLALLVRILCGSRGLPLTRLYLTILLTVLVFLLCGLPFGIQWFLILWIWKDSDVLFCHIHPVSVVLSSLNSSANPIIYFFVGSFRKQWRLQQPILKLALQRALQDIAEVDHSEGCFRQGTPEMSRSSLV
From the text: Example C: MRGPRX2 β-Arrestin Assay
This assay measures compound inhibition of β-Arrestin recruitment, which is part of the G protein-independent pathway that results from the ligand-activated GPCR phosphorylation by specific GPCR kinases. The PathHunter CHO-K1 MRPGRX2 B-Arrestin Cell line stably expressing ProLink tagged MRGPRX2 and Enzyme Acceptor Tagged B-Arrestin was purchased from Eurofins DiscoverX, (Fremont, CA).
The cells were maintained in culture medium from the Europhins DiscoverX Cell Culture Kit-107 which includes FBS, hygromycin B and G418. For the assay, the cells were harvested and were resuspended with Cell Plating Reagent 2 (Eurofins DiscoverX). Cells were added 10000 cells in 25 μL/well to a 384-well black cell culture plate (Greiner VWR, Radnor, PA) which contained 125 nL/well of compound at a selected serially diluted concentration range or DMSO. The plate was incubated at 37° C. with 5% CO2 for 1 h. 2 μL/well of agonist Cortistatin 14 was diluted in Protein Dilution Buffer, (Eurofins DiscoverX) for a final concentration of 0.25 μM, was added and the plate was incubated at 37° C. with 5% CO2 for 90 min. 14 μL/well of Detection Reagent Mix (PathHunter Detection Kit, Eurofins DiscoverX) was added to the plates and further incubated for 1 h in the dark. Plates were read on the PHERAstar microplate reader (BMG Labtech Cary, NC) measuring luminescence 0.1 to 1 s per well. Data was normalized using DMSO only wells and wells with high concentration of reference antagonist as controls. Compound IC50 curves were globally fitted with 3- or 4-parameter Hill equation in a Genedata Screener (Genedata Basel, Switzerland).

Which IC50 does the source give for `C[C@@]1(O)CCN(C(CNc2cc(C(F)(F)F)nc3cc(C(F)(F)F)nn23)c2ccc(F)cc2)C1` (mixture of isomers) [Example 30, (3R)-1-(2-((2,5-Bis(trifluoromethyl)pyrazolo[1,5-a]pyrimidin-7-yl)amino)-1-(4-fluorophenyl)ethyl)-3-methylpyrrolidin-3-ol] here?
Its IC50 is 0.1 to 100 nM.

For `OC[C@H]1CCN(C(CNc2cc(C(F)(F)F)nc3cc(C(F)(F)F)nn23)c2ccc(F)cc2)C1` (mixture of isomers) [Example 31, ((3S)-1-(2-((2,5-Bis(trifluoromethyl)pyrazolo[1,5-a]pyrimidin-7-yl)amino)-1-(4-fluorophenyl)ethyl)pyrrolidin-3-yl)methanol], which IC50 is on record?
Its IC50 is 0.1 to 100 nM.

How did the IC50 turn out when `OC1CCC12CN(C(CNc1cc(C(F)(F)F)nc3cc(C(F)(F)F)nn13)c1ccc(F)cc1)C2` (mixture of isomers) [Example 34, 2-(2-((2,5-Bis(trifluoromethyl)pyrazolo[1,5-a]pyrimidin-7-yl)amino)-1-(4-fluorophenyl)ethyl)-2-azaspiro[3.3]heptan-5-ol] was run?
Its IC50 is 0.1 to 100 nM.

How did the IC50 turn out when `CCC(CNc1cc(C(F)(F)F)nc2cc(C(F)(F)F)nn12)(c1ccc(F)cc1)C1CN(C(N)=O)C1` (racemic) [Example 1, 3-(1-((2,5-Bis(trifluoromethyl)pyrazolo[1,5-a]pyrimidin-7-yl)amino)-2-(4-fluorophenyl)butan-2-yl)azetidine-1-carboxamide] was run?
The IC50 was 0.1 to 100 nM.

With `CC(CNc1cc(C(F)(F)F)nc2cc(C(F)(F)F)nn12)(c1ccc(F)cc1)C1CCN(C(N)=O)CC1` (racemic) [Example 2, 4-(1-((2,5-Bis(trifluoromethyl)pyrazolo[1,5-a]pyrimidin-7-yl)amino)-2-(4-fluorophenyl)propan-2-yl)piperidine-1-carboxamide] as the compound, how does the IC50 read?
The IC50 was 0.1 to 100 nM.

`Cn1nc(N2CC(C(C)(CNc3cc(C(F)(F)F)nc4cc(C(F)(F)F)nn34)c3ccc(F)cc3)C2)ccc1=O` (racemic) [Example 12, 6-(3-(1-((2,5-Bis(trifluoromethyl)pyrazolo[1,5-a]pyrimidin-7-yl)amino)-2-(4-fluorophenyl)propan-2-yl)azetidin-1-yl)-2-methylpyridazin-3(2H)-one] was tested. Which IC50 did it give?
The IC50 was 0.1 to 100 nM.

With `NC(=O)N1CCC(C(CNc2cc(C(F)(F)F)nc3cc(C(F)(F)F)nn23)c2ccc(F)cc2)CC1` (racemic) [Example 15, 4-(2-((2,5-Bis(trifluoromethyl)pyrazolo[1,5-a]pyrimidin-7-yl)amino)-1-(4-fluorophenyl)ethyl)piperidine-1-carboxamide] as the compound, how does the IC50 read?
The IC50 was 0.1 to 100 nM.

For `NC(=O)N1CC(C(CO)(CNc2cc(C(F)(F)F)nc3cc(C(F)(F)F)nn23)c2ccc(F)cc2)C1` (racemic) [Example 21, 3-(1-((2,5-Bis(trifluoromethyl)pyrazolo[1,5-a]pyrimidin-7-yl)amino)-2-(4-fluorophenyl)-3-hydroxypropan-2-yl)azetidine-1-carboxamide], which IC50 is on record?
Its IC50 is 0.1 to 100 nM.

How did the IC50 turn out when `OC1CCC2(CC1)CN(C(CNc1cc(C(F)(F)F)nc3cc(C(F)(F)F)nn13)c1ccc(F)cc1)C2` (racemic) [Example 23, 2-(2-((2,5-Bis(trifluoromethyl)pyrazolo[1,5-a]pyrimidin-7-yl)amino)-1-(4-fluorophenyl)ethyl)-2-azaspiro[3.5]nonan-7-ol] was run?
The IC50 was 0.1 to 100 nM.

How did the IC50 turn out when `Fc1ccc(C(CNc2cc(C(F)(F)F)nc3cc(C(F)(F)F)nn23)N2CC(c3ccccn3)C2)cc1` (racemic) [Example 24, N-(2-(4-Fluorophenyl)-2-(3-(pyridin-2-yl)azetidin-1-yl)ethyl)-2,5-bis(trifluoromethyl)pyrazolo[1,5-a]pyrimidin-7-amine] was run?
The IC50 was 0.1 to 100 nM.

`Cn1cc(NC2CN(C(CNc3cc(C(F)(F)F)nc4cc(C(F)(F)F)nn34)c3ccc(F)cc3)C2)nn1` (racemic) [Example 27, N-(2-(4-Fluorophenyl)-2-(3-((1-methyl-1H-1,2,3-triazol-4-yl)amino)azetidin-1-yl)ethyl)-2,5-bis(trifluoromethyl)pyrazolo[1,5-a]pyrimidin-7-amine] was tested. Which IC50 did it give?
Its IC50 is 0.1 to 100 nM.

For `Cn1ccnc1NC1CN(C(CNc2cc(C(F)(F)F)nc3cc(C(F)(F)F)nn23)c2ccc(F)cc2)C1` (racemic) [Example 28, N-(2-(4-Fluorophenyl)-2-(3-((1-methyl-1H-imidazol-2-yl)amino)azetidin-1-yl)ethyl)-2,5-bis(trifluoromethyl)pyrazolo[1,5-a]pyrimidin-7-amine], which IC50 is on record?
The IC50 was 0.1 to 100 nM.

With `O=C1CCC2(CN(C(CNc3cc(C(F)(F)F)nc4cc(C(F)(F)F)nn34)c3ccc(F)cc3)C2)N1` (racemic) [Example 32, 2-(2-((2,5-Bis(trifluoromethyl)pyrazolo[1,5-a]pyrimidin-7-yl)amino)-1-(4-fluorophenyl)ethyl)-2,5-diazaspiro[3.4]octan-6-one] as the compound, how does the IC50 read?
The IC50 was 0.1 to 100 nM.

For `NC(=O)N1CC2(CCN(C(CNc3cc(C(F)(F)F)nc4cc(C(F)(F)F)nn34)c3ccc(F)cc3)C2)C1` (racemic) [Example 33, 6-(2-((2,5-Bis(trifluoromethyl)pyrazolo[1,5-a]pyrimidin-7-yl)amino)-1-(4-fluorophenyl)ethyl)-2,6-diazaspiro[3.4]octane-2-carboxamide], which IC50 is on record?
Its IC50 is 0.1 to 100 nM.

Which IC50 does the source give for `N#CC1(C(=O)N2CC3(C2)CN(C(CNc2cc(C(F)(F)F)nc4cc(C(F)(F)F)nn24)c2ccc(F)cc2)C3)CC1` (racemic) [Example 38, 1-(6-(2-((2,5-Bis(trifluoromethyl)pyrazolo[1,5-a]pyrimidin-7-yl)amino)-1-(4-fluorophenyl)ethyl)-2,6-diazaspiro[3.3]heptane-2-carbonyl)cyclopropane-1-carbonitrile] here?
Its IC50 is 0.1 to 100 nM.

Which IC50 does the source give for `O=C(CO)N1CC2(C1)CN(C(CNc1cc(C(F)(F)F)nc3cc(C(F)(F)F)nn13)c1ccc(F)cc1)C2` (racemic) [Example 39, 1-(6-(2-((2,5-Bis(trifluoromethyl)pyrazolo[1,5-a]pyrimidin-7-yl)amino)-1-(4-fluorophenyl)ethyl)-2,6-diazaspiro[3.3]heptan-2-yl)-2-hydroxyethan-1-one] here?
Its IC50 is 0.1 to 100 nM.

With `[2H]C([2H])([2H])NC(=O)N1CC2(C1)CN(C(CNc1cc(C(F)(F)F)nc3cc(C(F)(F)F)nn13)c1ccc(F)cc1)C2` (racemic) [Example 40, 6-(2-((2,5-Bis(trifluoromethyl)pyrazolo[1,5-a]pyrimidin-7-yl)amino)-1-(4-fluorophenyl)ethyl)-N-(methyl-d3)-2,6-diazaspiro[3.3]heptane-2-carboxamide] as the compound, how does the IC50 read?
Its IC50 is 0.1 to 100 nM.

How did the IC50 turn out when `O=C(NCC(F)(F)F)N1CC2(C1)CN(C(CNc1cc(C(F)(F)F)nc3cc(C(F)(F)F)nn13)c1ccc(F)cc1)C2` (racemic) [Example 41, 6-(2-((2,5-Bis(trifluoromethyl)pyrazolo[1,5-a]pyrimidin-7-yl)amino)-1-(4-fluorophenyl)ethyl)-N-(2,2,2-trifluoroethyl)-2,6-diazaspiro[3.3]heptane-2-carboxamide] was run?
Its IC50 is 0.1 to 100 nM.

`O=C1NC2(CO1)CN(C(CNc1cc(C(F)(F)F)nc3cc(C(F)(F)F)nn13)c1ccc(F)cc1)C2` (racemic) [Example 42, 2-(2-((2,5-Bis(trifluoromethyl)pyrazolo[1,5-a]pyrimidin-7-yl)amino)-1-(4-fluorophenyl)ethyl)-7-oxa-2,5-diazaspiro[3.4]octan-6-one] was tested. Which IC50 did it give?
Its IC50 is 0.1 to 100 nM.

For `CC(CNc1cc(C(F)(F)F)nc2cc(C(F)(F)F)nn12)(c1ccc(F)cc1)C1CCN(C(N)=O)C1` (single isomer, unassigned) [Example 3, 3-(1-((2,5-Bis(trifluoromethyl)pyrazolo[1,5-a]pyrimidin-7-yl)amino)-2-(4-fluorophenyl)propan-2-yl)pyrrolidine-1-carboxamide], which IC50 is on record?
Its IC50 is 0.1 to 100 nM.

For `CC(CNc1cc(C(F)(F)F)nc2cc(C(F)(F)F)nn12)(c1ccc(F)cc1)C1CCN(C(N)=O)C1` (single isomer, unassigned) [Example 4, 3-(1-((2,5-Bis(trifluoromethyl)pyrazolo[1,5-a]pyrimidin-7-yl)amino)-2-(4-fluorophenyl)propan-2-yl)pyrrolidine-1-carboxamide], which IC50 is on record?
The IC50 was 0.1 to 100 nM.

How did the IC50 turn out when `NC(=O)N1CCC(C(CO)(CNc2cc(C(F)(F)F)nc3cc(C(F)(F)F)nn23)c2ccc(F)cc2)C1` (single isomer, unassigned) [Example 19, 3-(1-((2,5-Bis(trifluoromethyl)pyrazolo[1,5-a]pyrimidin-7-yl)amino)-2-(4-fluorophenyl)-3-hydroxypropan-2-yl)pyrrolidine-1-carboxamide] was run?
The IC50 was 0.1 to 100 nM.

`NC(=O)N1CC2(C1)CN(C(CNc1cc(C(F)(F)F)nc3cc(C(F)(F)F)nn13)c1ccc(F)cc1)C2` (single isomer, unassigned) [Example 29, 6-(2-((2,5-Bis(trifluoromethyl)pyrazolo[1,5-a]pyrimidin-7-yl)amino)-1-(4-fluorophenyl)ethyl)-2,6-diazaspiro[3.3]heptane-2-carboxamide] was tested. Which IC50 did it give?
The IC50 was 0.1 to 100 nM.
